Assay results taken from US20260327214A1, “1,3,4-OXADIAZOLE DERIVATIVE COMPOUNDS AS HISTONE DEACETYLASE 6 INHIBITOR, AND USES THEREOF” (CHONG KUN DANG PHARMACEUTICAL CORP., priority 2022, published 2026).

What was measured:
human recombinant HDAC6 = target: T1, human recombinant HDAC6 (Homo sapiens, UniProt Q9UBN7); assay: HDAC6 enzyme activity inhibition test (HDAC Fluorometric Drug Discovery Kit); format: biochemical; conditions: for HDAC6 selectivity (fold): HDAC6 over HDAC1; for IC50: human recombinant HDAC6, same protocol as HDAC1
T1 construct: purchased Calbiochem 382180
T1 sequence (Q9UBN7 1-1215): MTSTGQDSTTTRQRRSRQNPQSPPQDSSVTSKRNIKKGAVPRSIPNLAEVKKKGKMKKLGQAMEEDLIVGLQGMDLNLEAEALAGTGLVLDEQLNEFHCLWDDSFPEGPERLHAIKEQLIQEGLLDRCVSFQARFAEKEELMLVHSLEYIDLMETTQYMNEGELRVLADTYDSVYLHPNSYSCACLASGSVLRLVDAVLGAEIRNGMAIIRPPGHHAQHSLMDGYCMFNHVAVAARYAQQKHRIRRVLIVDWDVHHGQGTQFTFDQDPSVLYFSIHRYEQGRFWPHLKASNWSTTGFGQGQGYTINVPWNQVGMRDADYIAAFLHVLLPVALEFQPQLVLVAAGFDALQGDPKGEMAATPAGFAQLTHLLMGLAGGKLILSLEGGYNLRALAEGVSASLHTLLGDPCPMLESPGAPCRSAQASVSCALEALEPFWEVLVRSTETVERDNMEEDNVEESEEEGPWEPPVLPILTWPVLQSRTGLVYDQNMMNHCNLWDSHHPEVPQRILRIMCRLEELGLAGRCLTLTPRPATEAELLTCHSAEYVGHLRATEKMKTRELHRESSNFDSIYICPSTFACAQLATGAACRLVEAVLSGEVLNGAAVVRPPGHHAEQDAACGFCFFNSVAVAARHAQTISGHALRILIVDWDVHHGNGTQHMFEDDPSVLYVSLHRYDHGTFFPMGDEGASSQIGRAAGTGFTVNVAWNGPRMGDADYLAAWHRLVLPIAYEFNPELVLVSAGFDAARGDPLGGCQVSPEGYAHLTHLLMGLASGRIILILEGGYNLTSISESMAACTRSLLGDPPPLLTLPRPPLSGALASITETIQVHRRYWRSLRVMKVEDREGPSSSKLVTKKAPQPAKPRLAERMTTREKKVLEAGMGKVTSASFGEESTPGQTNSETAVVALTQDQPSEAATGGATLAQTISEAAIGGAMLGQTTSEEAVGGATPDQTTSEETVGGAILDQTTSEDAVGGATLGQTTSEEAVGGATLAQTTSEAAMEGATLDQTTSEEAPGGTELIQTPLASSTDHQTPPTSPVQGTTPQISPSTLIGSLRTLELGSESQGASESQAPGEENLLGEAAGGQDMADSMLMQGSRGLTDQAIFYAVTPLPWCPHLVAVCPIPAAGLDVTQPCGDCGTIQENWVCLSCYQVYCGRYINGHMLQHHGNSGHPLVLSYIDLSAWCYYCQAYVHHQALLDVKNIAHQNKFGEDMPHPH
How it was run: (§1)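 IC50 derived from fluorescence (Ex 360, Em 460) following 30 min development with Developer II. Each reaction held 0.3 μg human recombinant HDAC1 or HDAC6, 10 μM Fluor de Lys SIRT1 substrate and 5-fold serially diluted compound, incubated 60 min at 30 °C.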

human recombinant HDAC1 = target: T2, human recombinant HDAC1 (Homo sapiens, UniProt Q13547); assay: HDAC1 enzyme activity inhibition test (HDAC Fluorometric Drug Discovery Kit); format: biochemical; conditions: 30° C., 60 minutes, 10 μM substrate
T2 construct: purchased Enzo Life Science BML-SE456
T2 sequence (Q13547 whole entry): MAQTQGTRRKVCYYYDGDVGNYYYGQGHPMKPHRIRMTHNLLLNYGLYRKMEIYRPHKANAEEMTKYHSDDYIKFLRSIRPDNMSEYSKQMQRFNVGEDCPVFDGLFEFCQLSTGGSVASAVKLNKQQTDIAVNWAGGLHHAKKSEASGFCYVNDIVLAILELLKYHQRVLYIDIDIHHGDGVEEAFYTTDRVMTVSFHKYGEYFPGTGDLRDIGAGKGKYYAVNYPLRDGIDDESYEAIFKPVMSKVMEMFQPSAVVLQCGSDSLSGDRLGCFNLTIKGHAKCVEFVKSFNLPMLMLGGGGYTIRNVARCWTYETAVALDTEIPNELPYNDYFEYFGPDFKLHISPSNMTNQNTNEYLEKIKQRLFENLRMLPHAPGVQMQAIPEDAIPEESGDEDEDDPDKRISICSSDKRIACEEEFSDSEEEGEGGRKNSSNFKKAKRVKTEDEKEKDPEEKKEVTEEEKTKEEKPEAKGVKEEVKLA
How it was run: as §1

Row | Structure (SMILES) | HDAC6 selectivity (fold) (human recombinant HDAC6) | IC50 (human recombinant HDAC6) | IC50 (human recombinant HDAC1)
1 | CCN(CC)Cc1ccc(-c2nn(Cc3ccc(-c4nnc(C(F)F)o4)cn3)c(=S)o2)s1 [Compound 122, 5-[5-(diethylaminomethyl)-2-thienyl]-3-[[5-[5-(difluoromethyl)-1,3,4-oxadiazol-2-yl]-2-pyridyl]methyl]-1,3,4-oxadiazol-2-thione] | 453 fold | 0.11 µM | > 50 µM
2 | FC(F)c1nnc(-c2ccc(Cn3nc(-c4ccc(CN5CC[C@@H](F)C5)s4)oc3=S)nc2)o1 [Compound 124, 3-[[5-[5-(difluoromethyl)-1,3,4-oxadiazol-2-yl]-2-pyridyl]methyl]-5-[5-[[(3R)-3-fluoropyrrolidin-1-yl]methyl]-2-thienyl]-1,3,4-oxadiazol-2-thione] | 491 fold | 0.102 µM | > 50 µM
3 | FC(F)c1nnc(-c2ccc(Cn3nc(-c4ccc(CN5CC[C@H](F)C5)s4)oc3=S)nc2)o1 [Compound 125, 3-[[5-[5-(difluoromethyl)-1,3,4-oxadiazol-2-yl]-2-pyridyl]methyl]-5-[5-[[(3S)-3-fluoropyrrolidin-1-yl]methyl]-2-thienyl]-1,3,4-oxadiazol-2-thione] | 563 fold | 0.0888 µM | > 50 µM
4 | CN(C)Cc1ccc(-c2nn(Cc3ncc(-c4nnc(C(F)F)o4)cc3F)c(=S)o2)s1 [Compound 128, 3-[[5-[5-(difluoromethyl)-1,3,4-oxadiazol-2-yl]-3-fluoro-2-pyridyl]methyl]-5-[5-[(dimethylamino)methyl]-2-thienyl]-1,3,4-oxadiazol-2-thione] | 583 fold | 0.0857 µM | > 50 µM
5 | CCN(CC)Cc1ccc(-c2nn(Cc3ncc(-c4nnc(C(F)F)o4)cc3F)c(=S)o2)s1 [Compound 129, 5-[5-(diethylaminomethyl)-2-thienyl]-3-[[5-[5-(difluoromethyl)-1,3,4-oxadiazol-2-yl]-3-fluoro-2-pyridyl]methyl]-1,3,4-oxadiazol-2-thione] | 457 fold | 0.109 µM | > 50 µM
6 | O=c1oc(-c2ccc(CN3CCC3)cc2)nn1Cc1ccc(-c2nnc(C(F)F)o2)cn1 [Compound 132, 5-[4-(azetidin-1-ylmethyl)phenyl]-3-[[5-[5-(difluoromethyl)-1,3,4-oxadiazol-2-yl]-2-pyridyl]methyl]-1,3,4-oxadiazol-2-one] | 484 fold | 0.103 µM | > 50 µM
7 | O=c1oc(-c2ccc(CN3CCCCC3)cc2)nn1Cc1ccc(-c2nnc(C(F)F)o2)cn1 [Compound 133, 3-[[5-[5-(difluoromethyl)-1,3,4-oxadiazol-2-yl]-2-pyridyl]methyl]-5-[4-(1-piperidylmethyl)phenyl]-1,3,4-oxadiazol-2-one] | 442 fold | 0.113 µM | > 50 µM
8 | CN1CCc2cc(-c3nn(Cc4ccc(-c5nnc(C(F)F)o5)cn4)c(=S)o3)sc2C1 [Compound 139, 3-[[5-[5-(difluoromethyl)-1,3,4-oxadiazol-2-yl]-2-pyridyl]methyl]-5-(6-methyl-5,7-dihydro-4H-thieno[2,3-c]pyridin-2-yl)-1,3,4-oxadiazol-2-thione] | 552 fold | 0.0906 µM | > 50 µM

Stronger by IC50 (human recombinant HDAC6), values ahead:

Row | HDAC6 selectivity (fold) (human recombinant HDAC6) | IC50 (human recombinant HDAC6) | IC50 (human recombinant HDAC1) | Structure (SMILES)
9 | 612 fold | 0.0817 µM | > 50 µM | CN(C)Cc1cc(-c2nn(Cc3ccc(-c4nnc(C(F)F)o4)cn3)c(=S)o2)cs1 [Compound 131, 3-[[5-[5-(difluoromethyl)-1,3,4-oxadiazol-2-yl]-2-pyridyl]methyl]-5-[5-[(dimethylamino)methyl]-3-thienyl]-1,3,4-oxadiazol-2-thione]
10 | 639 fold | 0.0782 µM | > 50 µM | CN(C)Cc1ccc(-c2nn(Cc3ccc(-c4nnc(C(F)F)o4)cn3)c(=S)o2)s1 [Compound 121, 3-[[5-[5-(difluoromethyl)-1,3,4-oxadiazol-2-yl]-2-pyridyl]methyl]-5-[5-[(dimethylamino)methyl]-2-thienyl]-1,3,4-oxadiazol-2-thione]
11 | 680 fold | 0.0735 µM | > 50 µM | FC(F)c1nnc(-c2ccc(Cn3nc(-c4csc(CN5CCC5)c4)oc3=S)nc2)o1 [Compound 134, 5-[5-(azetidine-1-ylmethyl)-3-thienyl]-3-[[5-[5-(difluoromethyl)-1,3,4-oxadiazol-2-yl]-2-pyridyl]methyl]-1,3,4-oxadiazol-2-thione]
12 | 741 fold | 0.0675 µM | > 50 µM | CN1CCc2cc(-c3nn(Cc4ncc(-c5nnc(C(F)F)o5)cc4F)c(=S)o3)ccc2C1 [Compound 135, 3-[[5-[5-(difluoromethyl)-1,3,4-oxadiazol-2-yl]-3-fluoro-2-pyridyl]methyl]-5-(2-methyl-3,4-dihydro-1H-isoquinolin-6-yl)-1,3,4-oxadiazol-2-thione]
13 | 750 fold | 0.0667 µM | > 50 µM | Fc1cc(-c2nnc(C(F)F)o2)cnc1Cn1nc(-c2ccc(CN3CCC3)s2)oc1=S [Compound 130, 5-[5-(azetidine-1-ylmethyl)-2-thienyl]-3-[[5-[5-(difluoromethyl)-1,3,4-oxadiazol-2-yl]-3-fluoro-2-pyridyl]methyl]-1,3,4-oxadiazol-2-thione]
14 | 840 fold | 0.0595 µM | > 50 µM | CC(C)N1CCc2cc(-c3nn(Cc4ncc(-c5nnc(C(F)F)o5)cc4F)c(=S)o3)ccc2C1 [Compound 136, 3-[[5-[5-(difluoromethyl)-1,3,4-oxadiazol-2-yl]-3-fluoro-2-pyridyl]methyl]-5-(2-isopropyl-3,4-dihydro-1H-isoquinolin-6-yl)-1,3,4-oxadiazol-2-thione]
15 | 879 fold | 0.0569 µM | > 50 µM | CC(C)N1CCN(c2nccc(-c3nn(Cc4ccc(-c5nnc(C(F)F)o5)cn4)c(=S)o3)n2)CC1 [Compound 127, 3-[[5-[5-(difluoromethyl)-1,3,4-oxadiazol-2-yl]-2-pyridyl]methyl]-5-[2-(4-isopropylpiperazin-1-yl)pyrimidin-4-yl]-1,3,4-oxadiazol-2-thione]
16 | 977 fold | 0.0512 µM | > 50 µM | CN1CCN(c2nccc(-c3nn(Cc4ccc(-c5nnc(C(F)F)o5)cn4)c(=S)o3)n2)CC1 [Compound 126, 3-[[5-[5-(difluoromethyl)-1,3,4-oxadiazol-2-yl]-2-pyridyl]methyl]-5-[2-(4-methylpiperazin-1-yl)pyrimidin-4-yl]-1,3,4-oxadiazol-2-thione]
17 | 1042 fold | 0.0487 µM | > 50 µM | Fc1cc(-c2nnc(C(F)F)o2)cnc1Cn1nc(-c2ccc3c(c2)CCN(C2CCCCC2)C3)oc1=S [Compound 138, 5-(2-cyclohexyl-3,4-dihydro-1H-isoquinolin-6-yl)-3-[[5-[5-(difluoromethyl)-1,3,4-oxadiazol-2-yl]-3-fluoro-2-pyridyl]methyl]-1,3,4-oxadiazol-2-thione]
18 | 1075 fold | 0.0465 µM | > 50 µM | Fc1cc(-c2nnc(C(F)F)o2)cnc1Cn1nc(-c2ccc3c(c2)CCN(C2CCC2)C3)oc1=S [Compound 137, 5-(2-cyclobutyl-3,4-dihydro-1H-isoquinolin-6-yl)-3-[[5-[5-(difluoromethyl)-1,3,4-oxadiazol-2-yl]-3-fluoro-2-pyridyl]methyl]-1,3,4-oxadiazol-2-thione]
19 | 1109 fold | 0.0451 µM | > 50 µM | FC(F)c1nnc(-c2ccc(Cn3nc(-c4ccc(CN5CCC5)s4)oc3=S)nc2)o1 [Compound 123, 5-[5-(azetidine-1-ylmethyl)-2-thienyl]-3-[[5-[5-(difluoromethyl)-1,3,4-oxadiazol-2-yl]-2-pyridyl]methyl]-1,3,4-oxadiazol-2-thione]
